Results reported in US20130089536A1, “PHARMACEUTICAL COMPOSITION TO PREVENT AND TREAT ALZHEIMER'S DISEASE COMPRISING GCP II MUTANT” (KOREA CENTER FOR DISEASE CONTROL AND PREVENTION, priority 2011, published 2013).
“Also recorded” adds a separate entry of the source.

Tests used:
[1] = molecular target: recombinant human GCPII (rhGCP II) (Homo sapiens, UniProt Q04609); experiment: Effect of 2-PMPA on Aβ1-40 cleavage of rhGCP II (ELISA); assay type: biochemical; settings: 2-PMPA added at different concentrations, FIG. 1a
Sequence of recombinant human GCPII (rhGCP II) (Q04609 whole entry): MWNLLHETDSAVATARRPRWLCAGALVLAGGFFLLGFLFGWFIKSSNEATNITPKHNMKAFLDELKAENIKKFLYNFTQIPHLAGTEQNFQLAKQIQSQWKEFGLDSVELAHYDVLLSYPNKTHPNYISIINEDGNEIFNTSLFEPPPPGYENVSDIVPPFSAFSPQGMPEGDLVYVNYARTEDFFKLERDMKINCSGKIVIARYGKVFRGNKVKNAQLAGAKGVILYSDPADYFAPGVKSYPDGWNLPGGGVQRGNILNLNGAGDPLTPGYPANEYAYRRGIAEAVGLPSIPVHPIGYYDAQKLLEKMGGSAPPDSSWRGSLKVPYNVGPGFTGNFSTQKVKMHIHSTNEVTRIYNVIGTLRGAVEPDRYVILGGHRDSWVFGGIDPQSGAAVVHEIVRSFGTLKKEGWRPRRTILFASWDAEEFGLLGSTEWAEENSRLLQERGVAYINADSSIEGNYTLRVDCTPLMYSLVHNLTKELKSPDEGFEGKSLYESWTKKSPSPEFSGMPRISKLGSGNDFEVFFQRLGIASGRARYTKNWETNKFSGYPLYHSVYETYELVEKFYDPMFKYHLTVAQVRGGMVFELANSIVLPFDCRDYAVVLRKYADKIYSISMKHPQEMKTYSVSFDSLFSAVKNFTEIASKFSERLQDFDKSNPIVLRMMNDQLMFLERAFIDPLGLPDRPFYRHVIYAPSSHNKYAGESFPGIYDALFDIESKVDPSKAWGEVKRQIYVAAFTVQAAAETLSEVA
Experimental: Vectors encoding the hGCP II and various mutant hGCP II genes were transfected into PC3 cells in a 12-well plate. About 30 hr later, the culture medium was changed with fresh one treated with Aβ1-40 of Aβ1-42 peptide in the presence or absence of 2-PMPA, and the cells were incubated for another 8 hr. The medium was collected and assayed for residual Aβ1-40 or Aβ1-42 using ELISA kits (Invitrogen) following manufacturer's protocol. Cells transfected with the empty pcDNA3 empty vector were used as the negative control.

[2] = molecular target: GCP II (Homo sapiens, UniProt Q04609); experiment: NAAG cleavage assay with or without 2-PMPA; assay type: biochemical; settings: 20 μM [3H]NAAG, 20 nM 2-PMPA, 1 hr at 37° C.; FIG. 1b
Sequence of GCP II (Q04609 whole entry): as above
Experimental: The activity of endogenous or over-expressed Glutamate carboxypeptidase II protein (GCP II) was measured as follows. Cell lysate (50 μg) was incubated with 20 μM of N-acetyl-L-aspartyl-L-[3,4-3H] glutamate (NAAG; NEN corporation) with or without 20 nM 2-PMPA, a GCP II specific inhibitor, in a total volume of 100 μl containing 50 mM HEPES and 150 mM NaCl for 1 hr at 37° C. Upon completion of the reaction, sample mixture was loaded on AG 1-X8 anion-exchange resin (Biorad) prepared in 96 well columns, followed by centrifugation at 2000 rpm for 5 min. The resin bound with the sample mixture was eluted with 0.5 mM formate (100 ml) and centrifuged at 2000 rpm for 5 min. All the eluted samples were mixed with 1 ml of scintillation solution (Optiphase HiSafe; Wallac) and then radioactivity was measured by scintillation counter (Wallac Inc.).

[3] = molecular target: T1, lentiviral GCP II (Homo sapiens, UniProt Q04609); assay type: cell-based
T1 construct: host or cells: rat primary astrocytes (lentiviral infection)
T1 sequence (Q04609 whole entry): as above

[4] = system: Aβ1-40 and Aβ1-42; experiment: Aβ1-40 and Aβ1-42 levels in cortical membrane fractions of 2-PMPA treated APP Swedish/PS1ΔE9 transgenic mice (ELISA); assay type: in vivo, mouse; settings: 10 mg/kg intraperitoneally, 2×/wk for 1 month, 8-month old APP Swedish/PS1ΔE9 mice, FIG. 1e
Experimental: (§1) (a, b) rhGCP II was incubated with Aβ40 or NAAG with or without 2-PMPA or EDTA. A(340 or NAAG level was detected by ELISA or NAAG cleavage assay. (c) After lentiviral GCP II was infected into rat primary astrocytes, monomeric Aβ40 was treated to cells. And 2-PMPA was treated thereto at various doses. The Aβ40 concentration in cell growth medium was measured by ELISA assay. (d, e) Eight-month old APP Swedish/PS1E9 transgenic mice were injected intraperitoneally with 10 mg/kg of 2-PMPA or PBS 2/wk for 1 month (9 times). Membrane fractions were analyzed by NAAG and ELISA assay.
(§2) Vectors encoding the hGCP II and various mutant hGCP II genes were transfected into PC3 cells in a 12-well plate. About 30 hr later, the culture medium was changed with fresh one treated with Aβ1-40 of Aβ1-42 peptide in the presence or absence of 2-PMPA, and the cells were incubated for another 8 hr. […]
To investigate the effect of 2-PMPA in the mouse brain, 8-month old APP Swedish/PS1Δ9 mice transfected by the same manner as described in Example <1-6> were treated nine times with 2-PMPA (10 mg/kg, intraperitoneally, 2/wk for 1 month) or the same amount of PBS. Aβp1-40 and Aβ1-42 levels in the cortical membrane fractions were analyzed by the same manner as described in Example <1-3>. NAAG cleavage activity of GCP II was measured by the same manner as described in Example <1-4>.

[5] = NAAG hydrolysis by GCP II mutants, lysate of transfected H4 cells; assay type: biochemical; settings: H4 cell lysate, [3H]-labeled NAAG 20 μM, FIG. 3a
Experimental: The inventors of the present invention also investigated the changes of enzyme activity of GCP II mutant. To analyze enzyme activity of various mutants, mutant proteins with a substitution in the S1′ pocket (R210A, K699S) or S1 pocket (R536L, G548P) were transfected in H4 cells. To measure NAAG hydrolysis, cell lysate was incubated with [H]^3-labeled NAAG (20 μM) and GCP II specific […]. […] Additionally, to examine the effect of Aβ on NAAG cleavage of GCP II, rhGCP II was incubated with [H]^3-labeled NAAG (20 μM) and Aβ peptides at the same time. As a result, NAAG cleavage activity of GCP II was not affected by Aβ peptide (see FIG. 3b).
The activity of endogenous or over-expressed Glutamate carboxypeptidase II protein (GCP II) was measured as follows. Cell lysate (50 μg) was incubated with 20 μM of N-acetyl-L-aspartyl-L-[3,4-3H] glutamate (NAAG; NEN corporation) with or without 20 nM 2-PMPA, a GCP II specific inhibitor, in a total volume of 100 μl containing 50 mM HEPES and 150 mM NaCl for 1 hr at 37° C. Upon completion of the reaction, sample mixture was loaded on AG 1-X8 anion-exchange resin (Biorad) prepared in 96 well columns, followed by centrifugation at 2000 rpm for 5 min. […] All the eluted samples were mixed with 1 ml of scintillation solution (Optiphase HiSafe; Wallac) and then radioactivity was measured by scintillation counter (Wallac Inc.). […]

[6] = system: Aβ; experiment: Aβ clearance activity of GCP II mutants, lysate of transfected PC3 cells, dot blotting and western blotting (6E10); assay type: biochemical; settings: cell lysate 48 hr after transfection, Aβ 2 μM, overnight, FIGS. 4a, 4b
Experimental: (§3) To identify Aβ clearance activity of GCP II mutants, various mutant plasmids were transfected in PC3 cells known not to express endogenous GCP II. After 48 hr, the cell lysates were mixed with Aβ (2 μM) and incubated for overnight. The remaining Aβ peptides were detected by dot blotting and western blotting using 6E10 antibody. […] The inventors of the present invention also measured cleavage activity of GCP II on exogenously treated Aβ peptides in culture medium by ELISA. One day after transfection, 1 ng/ml Aβ was treated into the medium, followed by incubation for 8 hr at 37° C. Similarly with western blotting, residual Aβ was reduced by K699S but not by G548P (see FIG. 4c).
48 hrs later, the cell lysate was mixed with Aβ (2 μM) and incubated for overnight.
To quantify the remaining Aβ peptides, the mixture of cell lysate and Aβ (2 μM) proceeded to dot blotting and the result was analyzed by the same manner as described in Example <2-2>. 1 μl of the mixture of cell lysate and Aβ (2 μM) was dropped on nitrocellulose membrane, which was then completely dried. The dried membrane proceeded to blocking with TBS-T containing 5% nonfat dry milk at room temperature for 1 hr. Then, the membrane was incubated with anti-Aβ antibody, 6E10 (SIGNET; SIG-39300, 1:2000) in 5% nonfat dry milk at 4° C. for overnight. […] After washing three times, proteins were detected using chemiluminescent substrate.

[7] = system: Aβ; experiment: Cleavage of exogenously treated Aβ in culture medium of transfected cells, ELISA; assay type: cell-based; settings: 1 ng/ml Aβ one day after transfection, 8 hr at 37° C., FIG. 4c
Experimental: as §3
as §2, with “hr. The medium was collected and assayed for residual Aβ1-40 or Aβ1-42 using ELISA kits (Invitrogen) following manufacturer's protocol. Cells transfected with the empty pcDNA3 empty vector were used as the negative control.” for “hr.”

[8] = system: Aβ1-40; experiment: Aβ1-40 cleavage by rhGCP II, residual Aβ by ELISA; assay type: biochemical; settings: rhGCP II incubated with Aβ1-40, FIG. 1a
Experimental: as §1
As a result, rhGCP II cleaved Aβ1-40 peptides about 80 percent compared with the control, but 2-PMPA had no effect on Aβ1-40 cleavage of GCP II (see FIG. 1a). […] To investigate the effect of 2-PMPA in the mouse brain, 2-PMPA was treated into transgenic AD model mice. The inventors of the present invention used 2-PMPA (10 mg/kg, intraperitoneally, 2×/wk for 1 month) to treat 8-month old APP Swedish/PS1Δ9 transgenic mice. Aβ1-40 and Aβ1-42 levels in the cortical membrane fractions were analyzed by ELISA and NAAG cleavage activity of GCP II was measured by NAAG assay. As a result, cleavage of NAAG was reduced about 90 percent in 2-PMPA treated mouse compared with PBS control (see FIG. 1d). However, total levels of Aβ1-40 and Aβ1-42 were not changed by the treatment of 2-PMPA (see FIG. 1e). […]

O=C(O)CCC(CP(=O)(O)O)C(=O)O (stereo not drawn) [2-PMPA, 2-(Phosphonomethyl) pentanedioic acid]
effect on Aβ1-40 cleavage of rhGCP II [1]: no effect
hydrolysis of NAAG by GCP II [2]: completely blocked
Aβ1-40 cleavage of lentiviral GCP II [3]: did not block
total level of Aβ1-40 [4]: not changed
total level of Aβ1-42 [4]: not changed

G548P: GCP II mutant protein with a substitution in the S1 pocket
activity of NAAG hydrolysis maintained compared with wild type GCP II ([5]; listed as R548P): about 40%
Aβ cleavage activity compared with wild type [6]: lost Aβ cleavage activity; also recorded: did not; also recorded: lost its Aβ clearance activity
residual Aβ in culture medium [7]: not

K699S: GCP II mutant: 699th amino acid Lysine replaced with Serine, SEQ ID. NO: 2; S1′ pocket mutant
activity of NAAG hydrolysis (in words) [5]: completely lost; also recorded: did not cleave
Aβ cleavage activity compared with wild type [6]: higher Aβ cleavage activity than the wild type; also recorded: cleaved; also recorded: cleaved Aβ more than wild type
residual Aβ in culture medium [7]: reduced

rhGCP II: recombinant human GCPII (glutamate carboxypeptidase II), wild type
Aβ1-40 peptide cleaved compared with control [8]: about 80%
